Assay results from paper PMC4502315, “High Potency of a Novel Resveratrol Derivative, 3,3′,4,4′-Tetrahydroxy-trans-stilbene, against Ovarian Cancer Is Associated with an Oxidative Stress-Mediated Imbalance between DNA Damage Accumulation and Repair” (Oxidative Medicine and Cellular Longevity, 2015).

Experiments:
SKOV-3 = assay: LDH release assay, SKOV-3; type: cell-based; conditions: Homo sapiens; for IC50: SK-OV-3, 24 h, CalcuSyn
Procedure: (§1) As per LDH release, the measurements were performed using the commercially available Pierce LDH Cytotoxicity Assay Kit (Pierce Biotechnology, Rockford, IL, USA). In this assay, cells with damaged plasma membranes release LDH into the culture environment; then the enzyme catalyses the conversion of lactate to pyruvate, which is accompanied by a reduction of NAD^+ to NADH. Afterwards, diaphorase uses NADH to reduce a tetrazolium salt to a formazan whose level is proportional to LDH activity. The absorbance emitted by the formazan was monitored at 490 nm with a reference wavelength of 680 nm.
(§2) In order to examine the effect of 3,3′,4,4′-THS on the viability of ovarian cancer cells and to compare its activity with RVT, subconfluent cultures of A2780, OVCAR-3, and SKOV-3 cells were subjected to a wide range of stilbene concentrations (0–500 μM) for 24 h; then MTT and LDH release assays were performed.

[1] = system: superoxide dismutase (SOD); assay: SOD activity in cell lysates, SKOV-3; type: cell-based, human; conditions: 24 h, 10, 50, 100 μM tested
Procedure: (§3) Total activity of superoxide dismutase (SOD) was measured in cell lysates with a commercially available kit (R&D Systems Europe, Abingdon, UK), while the activity of catalase (CAT) was estimated by using the OxiSelect Catalase Activity Assay Kit (Cell Biolabs Inc., San Diego, CA, USA). Both assays were performed according to the manufacturer's instructions.

[2] = system: superoxide dismutase (SOD); assay: SOD activity in cell lysates, HPMCs; type: cell-based, human; conditions: 24 h, percentage of control cells
Procedure: as §3

HPMCs [3] = assay: Apoptosis (Hoechst 33258), HPMCs; type: cell-based, human; conditions: 24 h, percentage of control cells
Procedure: (§4) Identification of apoptosis was based on the presence of DNA condensation in cells stained with a fluorescent dye, Hoechst 33258 (Molecular Probes, Eugene, OR). Cells were grown on Lab-Tek Chamber Slides (Nunc, Roskilde, Denmark), fixed with 4% formaldehyde for 10 min and washed twice with PBS. Then the cells were incubated with Hoechst 33258 (0.1 μg/mL) for 5 min in the dark. After washing with PBS, stained nuclei were observed and counted under a Zeiss Axio Observer D1 fluorescence microscope (Carl Zeiss, Jena, Germany). The activity of caspases 3, 8, and 9 was quantified in the cell lysates using specific colorimetric kits (Abcam, Cambridge, UK) according to the manufacturer's instructions.

catalase (CAT) [4] = assay: CAT activity, SKOV-3; type: cell-based, human; conditions: 24 h, 10, 50, 100 μM tested
Procedure: as §3

SKOV-3 cells = assay: Apoptosis (Hoechst 33258), SKOV-3; type: cell-based, human; conditions: 24 h, 10, 50, 100 μM tested
Procedure: as §4

HPMCs [5] = assay: SA-β-Gal activity (senescence), HPMCs; type: cell-based, human; conditions: 24 h, percentage of control cells
Procedure: (§5) The activity of SA-β-Gal in the cell extracts was quantified by measuring the rate of conversion of 4-methylumbelliferyl-β-D-galactopyranoside to 4-methylumbelliferone, as described in [19]. In order to visualize expression of the enzyme in the cancer cell cytoplasm, cytochemical staining for SA-β-Gal was performed according to Dimri et al..

catalase (CAT) [6] = assay: CAT activity, HOSE cells; type: cell-based, human; conditions: 24 h, percentage of control cells
Procedure: as §3

HOSE cells [7] = assay: Apoptosis (Hoechst 33258), HOSE cells; type: cell-based, human; conditions: 24 h, percentage of control cells
Procedure: as §4

HOSE cells [8] = assay: SA-β-Gal activity (senescence), HOSE cells; type: cell-based, human; conditions: 24 h, percentage of control cells
Procedure: as §5

OVCAR-3 = assay: LDH release assay, OVCAR-3; type: cell-based; conditions: Homo sapiens, 24 h; for IC50: CalcuSyn
Procedure: as §1, §2

HPMCs [9] = assay: Oxidative DNA damage (8-OH-dG immunoassay), HPMCs; type: cell-based, human; conditions: 24 h, percentage of control cells
Procedure: Oxidative DNA damage was assessed by measuring the 8-OH-dG concentration with a competitive immunoassay (Cell Biolabs Inc.), as per manufacturer's instructions. The efficiency of 8-OH-dG repair was estimated after cell recovery for 24 h in standard growth medium. In order to examine the activity of DNA glycosylase I, reverse transcription PCR was performed. RNA extraction was carried out using the RNA Bee (Tel-Test, Friendswood, Texas, USA) and purified according to the manufacturer's protocol. One microgram of RNA was reverse transcribed into cDNA with random hexamer primers, and cDNA was subjected to PCR. The profile of the replication cycles was denaturation at 94°C for 50 s, annealing at 58°C for 50 s, and polymerization at 72°C for 1 min. In each reaction, the expression of glyceraldehyde-3-phosphate dehydrogenase (GAPDH) served as the internal control. The primers used for PCR were as follows: hOGG1 forward, 5′-[…]-3′; hOGG1 reverse, 5′-TAGCCCGCCCTGTTCTTC-3′ designed to amplify a 551-bp region; GAPDH forward, 5′-CCATGGAGAAGGCTGGGG-3′; and GAPDH reverse 5′-[…]-3′ designed to amplify a 194-bp region (total number of cycles: 28). The PCR products were separated on 3% agarose gels stained with ethidium bromide and then visualized.

[10] = system: superoxide dismutase (SOD); assay: SOD activity in cell lysates, OVCAR-3; type: cell-based, human; conditions: 24 h, 10, 50, 100 μM tested
Procedure: as §3

HOSE cells [11] = assay: LDH release assay, HOSE cells; type: cell-based, human; conditions: Homo sapiens, 24 h, CalcuSyn
HOSE cells [12] = assay: Cell proliferation (CFDA SE), HOSE cells; type: cell-based, human; conditions: 24 h, percentage of control cells
Procedure: Cell proliferative potential was determined using Cell Proliferation Kit I (PromoKine, Heidelberg, Germany) according to the manufacturer's instructions. In brief, cells were probed for 15 min with 5-(and 6)-carboxyfluorescein diacetate, a succinimidyl ester (CFDA SE; 2 μM) which diffuses into cells, covalently binds to proteins, and becomes fluorescent upon its hydrolysis by intracellular esterases. The fluorescence emitted by the cells (the dye is inherited by the daughter cells through successive divisions) was recorded using a Victor2 spectrofluorometer (Perkin-Elmer, Turku, Finland) with excitation at 435 nm and emission at 535 nm.

[13] = system: superoxide dismutase (SOD); assay: SOD activity in cell lysates, HOSE cells; type: cell-based, human; conditions: 24 h, percentage of control cells
Procedure: as §3

| IC50 (SKOV-3) [µM] | SMILES | SOD activity, effect in words [1] | SOD ([2]; 10 μM) | SOD ([2]; 50 μM) | SOD ([2]; 100 μM) | Apoptosis (HPMCs [3]; 10 μM) [%] | Apoptosis (HPMCs [3]; 50 μM) [%] | Apoptosis (HPMCs [3]; 100 μM) [%] | CAT activity, effect in words (catalase (CAT) [4]) | incidence of apoptosis (rise in percentage of death cells), effect in words (SKOV-3 cells) | SA-β-Gal (HPMCs [5]; 10 μM) | SA-β-Gal (HPMCs [5]; 50 μM) [%] | SA-β-Gal (HPMCs [5]; 100 μM) [%] | CAT (catalase (CAT) [6]; 10 μM) | CAT (catalase (CAT) [6]; 50 μM) | CAT (catalase (CAT) [6]; 100 μM) | Apoptosis (HOSE cells [7]; 10 μM) [%] | Apoptosis (HOSE cells [7]; 50 μM) [%] | Apoptosis (HOSE cells [7]; 100 μM) [%] | SA-β-Gal (HOSE cells [8]; 10 μM) [%] | also measured |
| --- | --- | --- | --- | --- | --- | --- | --- | --- | --- | --- | --- | --- | --- | --- | --- | --- | --- | --- | --- | --- | --- |
| 10 | Oc1ccc(/C=C/c2ccc(O)c(O)c2)cc1O [3,3′,4,4′-THS, 3,3′,4,4′-tetrahydroxy-trans-stilbene] | downregulated it at 50 and 100 μM | 122 ± 4^∗# % | 141 ± 3^∗# % | 136 ± 4^∗# % | 98 ± 2 | 102 ± 2 | 100 ± 4 | downregulated it in the SKOV-3 cells at 50 and 100 μM | evident starting from the lowest concentration of 10 μM | 76 ± 3^∗# % | 104 ± 4 | 99 ± 3 | 132 ± 1^∗# % | 163 ± 4^∗# % | 162 ± 1^∗# % | 101 ± 1 | 100 ± 2 | 102 ± 2 | 99 ± 2 | viability at 10 µM (SKOV-3; SK-OV-3, 10 μM, 24 h, percentage of control cells): 50 ± 2%; viability at 50 µM (SKOV-3; SK-OV-3, 50 μM, 24 h, percentage of control cells): 32 ± 12%; viability at 100 µM (SKOV-3; SK-OV-3, 100 μM, 24 h, percentage of control cells): 24 ± 7%; SA-β-Gal (HOSE cells [8]; 50 μM): 101 ± 3%; SA-β-Gal (HOSE cells [8]; 100 μM): 102 ± 5%; viability at 10 µM (OVCAR-3; 10 μM, percentage of control cells): 62 ± 12%; viability at 50 µM (OVCAR-3; 50 μM, percentage of control cells): 53 ± 3%; viability at 100 µM (OVCAR-3; 100 μM, percentage of control cells): 46 ± 3%; IC50 (OVCAR-3): 85 µM; 8-OH-dG (HPMCs [9]; 10 μM): 91 ± 2^∗# %; 8-OH-dG (HPMCs [9]; 50 μM): 88 ± 3^∗# %; 8-OH-dG (HPMCs [9]; 100 μM): 76 ± 3^∗# %; SOD activity, effect in words [10]: increased SOD at 10 μM and decreased the activity of the enzyme at 50 and 100 μM; IC50 (HOSE cells [11]): 532 µM; Proliferation (HOSE cells [12]; 10 μM): 116 ± 2^∗ %; Proliferation (HOSE cells [12]; 50 μM): 103 ± 1%; Proliferation (HOSE cells [12]; 100 μM): 99 ± 5%; SOD ([13]; 10 μM): 122 ± 1^∗# %; SOD ([13]; 50 μM): 141 ± 5^∗# %; SOD ([13]; 100 μM): 136 ± 2^∗# % |
| 346 | Oc1ccc(/C=C/c2cc(O)cc(O)c2)cc1 [RVT, 3,4′,5-trihydroxy-trans-stilbene, reference compound] | failed to affect SOD activity | 110 ± 2^∗ % | 112 ± 3^∗ % | 113 ± 2^∗ % | 101 ± 1 | 101 ± 1 | 98 ± 3 | stimulated the enzyme at 10 μM in the OVCAR-3 cells, at 50 μM in the A2780, OVCAR-3, and SKOV-3 cells, and at 100 μM in the OVCAR-3 and SKOV-3 cells | exhibiting its impact at concentrations of 50 and 100 μM for the A2780 and SKOV-3 cells | 100 ± 2% | 102 ± 4 | 100 ± 1 | 121 ± 6^∗ % | 119 ± 4^∗ % | 121 ± 6^∗ % | 99 ± 2 | 101 ± 2 | 102 ± 3 | 101 ± 2 | SA-β-Gal (HOSE cells [8]; 50 μM): 101 ± 2%; SA-β-Gal (HOSE cells [8]; 100 μM): 100 ± 3%; IC50 (OVCAR-3): 525 µM; 8-OH-dG (HPMCs [9]; 10 μM): 103 ± 3%; 8-OH-dG (HPMCs [9]; 50 μM): 103 ± 2%; 8-OH-dG (HPMCs [9]; 100 μM): 102 ± 5%; SOD activity, effect in words [10]: upregulated activity of the enzyme; IC50 (HOSE cells [11]): 421 µM; Proliferation (HOSE cells [12]; 10 μM): 103 ± 4%; Proliferation (HOSE cells [12]; 50 μM): 102 ± 1%; Proliferation (HOSE cells [12]; 100 μM): 104 ± 2%; SOD ([13]; 10 μM): 111 ± 3^∗ %; SOD ([13]; 50 μM): 112 ± 3^∗ %; SOD ([13]; 100 μM): 121 ± 4^∗ % |
